Experimental findings from patent US10000582B2, “Ethylsulfonated hyaluronic acid biopolymers and methods of use thereof” (The Regents of the University of California, priority 2013, dated 2018) are described below.

For the assay, the system named is platelets (platelet rich plasma). Put plainly: Platelet adhesion assay (SEM imaging). Type of assay: cell-based. The source says: Platelet adhesion experiments were visualized by scanning electron microscope (SEM) imaging (FIG. 7).

heparin: the “platelet aggregation on the material” value is reported as “no aggregation of platelets”.
